# From PubChem BioAssay AID330 (DTP/NCI, 2004)
# “And” between values parts separate entries of the source, which are not always exact repeats. Identical values can stand only once. Inconclusive results and toxic doses are left out.
# Tested on: P388 leukemia ip, CD2F1 mice, survival T/C
# Test: NCI In Vivo Anticancer Drug Screen. Data for tumor model P388 Leukemia (intraperitoneal) in CD2F1 (CDF1) mice
# Details: endpoint: median survival time, higher = longer survival
# Summary of the method: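 Mice carrying the transplanted tumor received test compound or vehicle. Survival was recorded in each group, and the value is the treated-group measurement divided by that of the vehicle-treated control group.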
# [1] = dose: 50.0 mg/kg/injection, schedule: Q01DX009 (ip), vehicle: Klucel (hydroxypropylcellulose) (HPC)
# [2] = dose: 100.0 mg/kg/injection, schedule: Q01DX009 (ip), vehicle: Klucel (hydroxypropylcellulose) (HPC)
# [3] = dose: 200.0 mg/kg/injection, schedule: Q01DX009 (ip), vehicle: Klucel (hydroxypropylcellulose) (HPC)
# [4] = dose: 60.0 mg/kg/injection, schedule: Q01DX005 (ip), vehicle: saline with Tween-80
# [5] = dose: 120.0 mg/kg/injection, schedule: Q01DX005 (ip), vehicle: saline with Tween-80
# [6] = dose: 240.0 mg/kg/injection, schedule: Q01DX005 (ip), vehicle: saline with Tween-80
structure (smiles),measurement,setting,value
C=C1C(=O)O[C@H]2C[C@H]3O[C@H]3[C@@H]12,T/C,"dose: 1.56 mg/kg/injection, schedule: Q01DX009 (ip), vehicle: water",100 % of control
same,T/C,"dose: 3.13 mg/kg/injection, schedule: Q01DX009 (ip), vehicle: water",99 % of control
same,T/C,"dose: 6.25 mg/kg/injection, schedule: Q01DX009 (ip), vehicle: water",98 % of control
same,T/C,"dose: 12.5 mg/kg/injection, schedule: Q01DX009 (ip), vehicle: water",101 % of control
same,T/C,"dose: 25.0 mg/kg/injection, schedule: Q01DX009 (ip), vehicle: water",107 % of control
O=c1c(Cl)c2oc3cc([N+](=O)[O-])ccc3nc-2c(Cl)c1Cl,T/C,[1],107 % of control
same,T/C,[2],99 % of control
same,T/C,[3],91 % of control
Cc1nn(C(=O)c2ccncc2)c(C)c1N=Nc1ccc(S(=O)(=O)Nc2ncccn2)cc1,T/C,[1],109 % of control
same,T/C,[2],109 % of control
same,T/C,[3],105 % of control
O=C(Nc1ccc(F)cc1)N1CCOCC1,T/C,[4],98 % of control
same,T/C,[5],93 % of control
same,T/C,[6],93 % of control
O=C1CCCC2=C1C(c1ccc(Cl)c(Cl)c1)C1=C(CCCC1=O)O2,T/C,[4],95 % of control
same,T/C,[5],95 % of control
same,T/C,[6],94 % of control
CCN1CCC(=C(c2ccccc2)c2ccccc2)C1,T/C,"dose: 6.25 mg/kg/injection, schedule: Q01DX009 (ip), vehicle: Klucel (hydroxypropylcellulose) (HPC)",102 % of control
same,T/C,"dose: 12.5 mg/kg/injection, schedule: Q01DX009 (ip), vehicle: Klucel (hydroxypropylcellulose) (HPC)",102 % of control
same,T/C,"dose: 25.0 mg/kg/injection, schedule: Q01DX009 (ip), vehicle: Klucel (hydroxypropylcellulose) (HPC)",100 % of control
same,T/C,[1],110 % of control
same,T/C,[2],108 % of control
COc1cc2cc3c4cc(OC)c(OC)cc4cc[n+]3c(C)c2cc1OC,T/C,"dose: 25.0 mg/kg/injection, schedule: Q01DX009 (ip), vehicle: other",155 % of control
same,T/C,"dose: 50.0 mg/kg/injection, schedule: Q01DX009 (ip), vehicle: other",152 % of control and 169 % of control and 178 % of control
same,T/C,"dose: 50.0 mg/kg/injection, schedule: Q01DX009 (ip), vehicle: saline sonified",109 % of control
same,T/C,"dose: 50.0 mg/kg/injection, schedule: Q04DX003 (ip), vehicle: other",156 % of control and 158 % of control
same,T/C,"dose: 100.0 mg/kg/injection, schedule: Q01DX009 (ip), vehicle: other",172 % of control and 189 % of control and 198 % of control
same,T/C,"dose: 100.0 mg/kg/injection, schedule: Q01DX009 (ip), vehicle: saline sonified",109 % of control
same,T/C,"dose: 100.0 mg/kg/injection, schedule: Q01DX009 (oral), vehicle: saline",104 % of control
same,T/C,"dose: 100.0 mg/kg/injection, schedule: Q04DX003 (ip), vehicle: other",153 % of control and 169 % of control and 177 % of control
same,T/C,"dose: 200.0 mg/kg/injection, schedule: Q01DX001 (oral), vehicle: saline",104 % of control
same,T/C,"dose: 200.0 mg/kg/injection, schedule: Q01DX009 (ip), vehicle: other",153 % of control and 162 % of control
same,T/C,"dose: 200.0 mg/kg/injection, schedule: Q01DX009 (ip), vehicle: saline sonified",109 % of control
same,T/C,"dose: 200.0 mg/kg/injection, schedule: Q01DX009 (oral), vehicle: saline",104 % of control
same,T/C,"dose: 200.0 mg/kg/injection, schedule: Q04DX003 (ip), vehicle: other",166 % of control (2×) and 199 % of control
same,T/C,"dose: 200.0 mg/kg/injection, schedule: Q04DX003 (oral), vehicle: saline",104 % of control
same,T/C,"dose: 400.0 mg/kg/injection, schedule: Q01DX001 (oral), vehicle: saline",100 % of control
same,T/C,"dose: 400.0 mg/kg/injection, schedule: Q01DX009 (ip), vehicle: other",182 % of control
same,T/C,"dose: 400.0 mg/kg/injection, schedule: Q01DX009 (ip), vehicle: saline sonified",90 % of control
same,T/C,"dose: 400.0 mg/kg/injection, schedule: Q01DX009 (oral), vehicle: saline",100 % of control
same,T/C,"dose: 400.0 mg/kg/injection, schedule: Q04DX003 (ip), vehicle: other",161 % of control and 165 % of control and 191 % of control
same,T/C,"dose: 400.0 mg/kg/injection, schedule: Q04DX003 (ip), vehicle: saline sonified",150 % of control
same,T/C,"dose: 400.0 mg/kg/injection, schedule: Q04DX003 (oral), vehicle: saline",104 % of control
same,T/C,"dose: 800.0 mg/kg/injection, schedule: Q01DX001 (oral), vehicle: saline",104 % of control
same,T/C,"dose: 800.0 mg/kg/injection, schedule: Q04DX003 (oral), vehicle: saline",109 % of control
